Several values for one entry are separate records, joined by “and”; a condition that tells them apart may be missing. Equal values may be shown once.
Tests used:
CD73 = assay: Immunoblot of CD73 in HCT116 cells after 4-day treatment; format: cell-based, human; conditions: 2 μM, 4 days
Experimental: To establish direct target engagement and cell membrane permeability, a cellular thermal shift assay (CETSA) was carried out, using leading QR2is YB’s-537, 800, and 808. Following a 1 hour preincubation with 5 μM of the QR2is or vehicle, thermal aggregation curves (Taggs) of QR2 expressed in HEK293T were measured in increasing temperatures. All QR2is increased QR2 thermal stability compared with vehicle (Supplemental Figure 2A). Based on the Tagg curves we selected 73°C for isothermal dose-response fingerprint (IDTRF) experiments (Supplemental Figure 2B). The ITDRF allowed the relative quantification of the binding of each of the QR2is to QR2, measured as the EC50 (Figure 3A). […] We evaluated the safety of the QR2is using cell toxicity and viability assays. […] Cell viability was assessed by XTT assay in HEK239T cells, using a dose response, with 3- or 24-hour incubations of the leading QR2is. […] We then assessed WT HCT116 cells by immunoblot (Supplemental Figure 2, C and D), after being treated with YB-800 (2 μM) for 4 consecutive days. […]
The cells wer e har ves t ed a nd resuspended in 1% cl ear m e di um ( DM EM – with no phenol red, suppl em ent ed with 1% FBS, 1% L-Glutamine and 1% Penicillin-Streptomycin). […] The plate wa s then incubated in the dark at 37°C f or 3 h, before reading in a Tecan M200 Pro florescence microplate reader, using wavelengths Ex/Em = 485 nm / 535 nm . […]

[1] = Drinking rate during chronic ingestion; format: in vivo, mouse; design: Sup. Fig. 5-2B, drinking rate: unit: ml/g/day
Experimental: Supplementary Figure 6. Chronic Drinking of 50 mg/kg YB -537 for of 1 Month Causes no Changes
in General Mouse Physiology or Behavior but Improves Nesting Behavior Over Time.
(A) Weight of male and female, 8–9- month-old 5xFAD mice over the course of 25 days while consuming
(B) Drinking rate of water or YB-537 in the cages of the 5xFAD mice. […]

SMILES | CD73 expression (replicates) (CD73) | average drinking rate ([1]; 5xFAD females) | average drinking rate ([1]; 5xFAD males) | Sup. Fig. 5-2B, drinking rate ([1]; Female) | Sup. Fig. 5-2B, drinking rate ([1]; Male)
Cc1ccc(-c2cn3cccc(C)c3n2)cc1S(=O)(=O)N1CCC(C)CC1 [YB-800] | 1.393 and 1.4862 and 1.532 and 1.811 and 1.4595 and 1.188 | – | – | – | –
Cc1ccc(-c2cn3cccc(C)c3n2)cc1S(=O)(=O)N1CCNCC1 [YB-537] | – | 0.170 ± 0.011 mL/g/day | 0.170 ± 0.035 mL/g/day | 0.159 and 0.182 | 0.207 and 0.135
